According to US11519922B2, “Methods for identifying risk of chemotherapy-induced cardiotoxicity and targeted medical intervention” (Detroit R&D, Inc., priority 2018, dated 2022):
Entries after “also recorded” stand apart in the source; their conditions may differ.

What was measured:
H9c2 rat cardiomyocytes [1] = assay: MTT cell viability assay; format: cell-based; conditions: 1 μM DOX 2 hr, then fresh media 24 hr; compared to untreated control cells
Experimental: Cell viability was determined using the 3-[4,5-dimethylthiazol-2-yl]-2,5-diphenyltetrazolium bromide (MTT) assay (13) for cells incubated with and without 1 μM of DOX in media for 2 hr followed by fresh media for another 24 hours. The DOX treated cells maintained more than 90% cell viability compared to untreated control cells.
Rat H9c2 cell line was purchased from American Type Culture Collection (Manassas, Va.) and cultured on polystyrene culture plates in a humidified incubator at 37° C. in an atmosphere of 5% CO2 and 95% air. The H9c2 cells were grown in high glucose DMEM supplemented with 4.5 g/l glucose, 0.15% sodium bicarbonate, 0.11% sodium pyruvate, 10% fetal bovine serum, […], 100 IU/ml penicillin and 10 μg/ml streptomycin. When cells reached 80-90% confluency, media was replaced with media containing 1 μM DOX (Sigma) dissolved in DMSO. Cells were treated for 2 hr and collected immediately (0 hr) or washed and kept for 2, 6 and 24 hr in media without DOX.
The effect of DOX on cell viability was determined by 3-[4,5-dimethylthiazol-2-yl]-2,5-diphenyltetrazolium bromide (MTT) assay (13).

H9c2 rat cardiomyocytes [2] = assay: Cell hypertrophy assay (cell surface area, ImageJ); format: cell-based; conditions: 1 μM DOX 2 hr
Experimental: Cells were treated for 2 hr with media containing 1 μM DOX, washed and kept for 2, 6 and 24 hr in media without DOX. Cell sizes (cell surface area) were measured using image J software. Results expressed as mean±SD (n=6-44);
Increased cell surface area (hypertrophy) was found at 6 hr and 24 hr after DOX treatment (p<0.05) whereas no changes were observed after 2 hr (˜100 cells measured/group) (FIG. 2).
For cell hypertrophy assay, rat H9c2 cells grown overnight in a plate containing a glass cover slip were fixed at 2, 6 and 24 hr after 2 hr 1 μM DOX treatment and stained with hematoxylin and eosin and images were taken using a using a Zeiss Axiovert microscope. ImageJ software was used to measure the surface area of the cells.

[3] = tested on: soluble epoxide hydrolase (sEH) in H9c2 cells; assay: sEH protein expression by Western blot; format: cell-based, rat; conditions: 1 μM DOX 2 hr, cells harvested at 6 hr; normalized by beta-actin
Experimental: FIGS. 5A and 5B show the effect of doxorubicin (DOX) on soluble epoxide hydrolase (sEH) expression in rat H9c2 cardiomyocytes cells (A) and NAG-1 (MIC-1, GDF-15), a plasma cardiotoxicity biomarker (B). Panel A, cells harvested at 6 hr with (Lane 2) and without (Lane 1) treatment of doxorubicin (DOX) (2 hr, final concentration 1 μM). Protein expression of sEH, GAPDH and beta-actin expressed in the cells were assessed by Western blot analysis. Expression levels of sEH were normalized by beta-actin protein levels and Panel B, Western blot analysis carried out under non-reducing/non-denaturing condition for NAG-1 protein in plasma samples obtained from healthy subjects (pooled plasma sample, control) and 3 breast cancer patients with cardiovascular disease (cardiotoxicity, Innovative Research);
Increased sEH protein levels after DOX treatment was detected by Western blot analysis using sEH antibody (Detroit R&D) (FIG. 5A).

rat serum = assay: Serum fatty acid biomarkers by ELISA in DOX-treated female rats; format: in vivo; conditions: DOX 3 mg/kg/week 2 weeks
Experimental: To verify that 14,15-DHET levels can be used as an early biomarker for prediction of DOX-dependent cardiotoxicity as previously found in the rat cardiomyocyte study (FIG. 1 and FIG. 2), levels of 14,15-DHET (sEH metabolite) in serum samples from control and DOX-treated rats with and without 2-week recovery were measured using a 14,15-DHET ELISA kit (Detroit R&D).
Levels of 20-HETE (CYP4A/4F-dependent hypertension biomarker) and 8-isoprostane (non-enzymatic oxidative stress biomarker) in rat serum samples were also measured using 20-HETE and 8-isoprostane ELISA kits, respectively, from Detroit R&D.
Biologically active fatty acids were extracted with ethyl acetate from 75 μl of serum samples (n=4) from control and DOX-treated animals with and without 2 weeks recovery. […] However, two weeks after the second injection (2 weeks recovery), when cardiotoxicity was still not detected, levels of 14,15-DHET (a metabolite of soluble epoxide hydrolase) and 8-isoprostane (non-enzymatic oxidative stress biomarker) were increased compared to the control group (FIG. 3B and FIG. 3D). No changes in levels of 20-HETE in rat serum samples between the two groups were observed (FIG. 3C).

[4] = Cardiotoxicity / LVEF in breast cancer patients after DOX treatment; format: in vivo, human
Text: Chemotherapy-associated cardiotoxicity is defined as either a cardiomyopathy with a reduction of left ventricular ejection fraction (LVEF) ≥5% to <55% with symptoms of heart failure or an asymptomatic reduction of LVEF ≥10% to <55% by the Cardiac Review and Evaluation Committee (CREC) (7).

[5] = tested on: plasma of breast cancer patient; assay: 14,15-DHET nanowell label-free analysis of patient plasma; format: in vivo, human; conditions: Patient #4, 10-fold diluted plasma, after vs before 3 months DOX, n=4
Experimental: The plasma samples of Patient #4 (10-fold diluted) who developed DOX-dependent cardiotoxicity 3 and 6 months after completion of the 3 months DOX treatment were obtained before and after 3 months DOX treatment (FIG. 4).
The bare gold surface of the 8-channel 90 nm or 200 nm nanowell electrode (Detroit R&D) was coated with a self-assembly monolayer (SAM) by incubating the electrode with 10 mM of 11-mercaptoundecanoic acid (MUA) (Sigma) for 1 hr at room temperature and activated using 50 mM EDC and 50 mM NHS. The 14,15-DHET IgG (Detroit R&D) (FIG. 6A) or TnI IgG (Detroit R&D) (FIG. 6B) in PBS (2.5 μg/ml) was added to the EDC/NHS-activated electrode. The IgG level to obtain optimal results was experimentally obtained by using electrodes coated with various concentrations of IgG ranging 1 to 10 μg/ml.

[6] = DOX 3 months followed by one-year trastuzumab, HER2-positive breast cancer patients, ref (5); cited from earlier work

- sEH protein levels [3]: Increased
- Serum 20-HETE (rat serum; 2 weeks recovery): No change
- increase of plasma 14,15-DHET level (nanowell) [5]: ~20 fold
SMILES: COc1cccc2c1C(=O)c1c(O)c3c(c(O)c1C2=O)C[C@@](O)(C(=O)CO)C[C@@H]3O[C@H]1C[C@H](N)[C@H](O)[C@H](C)O1 [DOX, doxorubicin]
- cell viability (H9c2 rat cardiomyocytes [1]): more than 90%
- cell surface area (hypertrophy) (H9c2 rat cardiomyocytes [2]; 2 hr recovery): no changes
- cell surface area (hypertrophy) (H9c2 rat cardiomyocytes [2]; 6 hr and 24 hr recovery): increased
- Serum 8-Isoprostane (rat serum; no recovery (~48 hr)): did not significantly change; also recorded: No change
- Serum 14,15-DHET (rat serum; no recovery (~48 hr)): did not significantly change; also recorded: No change
- Serum 20-HETE (rat serum; no recovery (~48 hr)): did not significantly change; also recorded: No change
- cardiotoxicity detected ([4]; 5 breast cancer patients, at completion of 3 months of DOX treatment): no cardiotoxicity
- reduction of LVEF ([4]; Patient #3, 3 months after 3 months of DOX treatment was completed): ~28%
- reduction of LVEF ([4]; Patient #4, 3 months after 3 months of DOX treatment was completed): 22%
- reduction of LVEF ([4]; Patients #3 and #4, 6 months after 3 months of DOX treatment was completed): around 20%
- reduction of LVEF ([4]; Patients #3 and #4, at 3 and 6 months after DOX treatment was completed): higher than 20%
- change of LVEF ([4]; the other patients (#1, #2, #5), at 3 and 6 months after DOX treatment): no significant changes
- cardiac dysfunction including symptomatic heart failure (HF) [6]: 18%
